Measured values reported in US11583524B2, “Inhibitors of the interaction between MDM2 and P53” (Janssen Pharmaceutica NV, priority 2007, dated 2023).

Legend:
Assay type in all cases: cell-based, human
[1] = system: A2780 ovarian cancer cells; assay: Alamar Blue cell proliferation assay, A2780; details: 4-day incubation; for IC50: Homo sapiens, 96 h, read-out: A2780 cell proliferation inhibition pIC50 (converted)
Protocol: Cellular activity of the compounds of formula (I) was determined on A2780 tumour cells using a colorimetric assay for cell toxicity or survival (see example C.2).
The human A2780 ovarian cancer cells were a kind gift from Dr. T. C. Hamilton (Fox Chase Cancer Centre, Pennsylvania, U.S.A.). The cells were cultured in RPMI 1640 medium supplemented with 2 mM L-Glutamine, 50 μg/ml gentamicin and 10% fetal calf serum.
(§1) Resazurin was purchased from Aldrich (Prod. No. 199303). Potassium ferrocyanide, potassium ferricyanide, KH2PO4 and K2HPO4 were purchased from Sigma (Prod. Nos. P9387, P8131, P5655 and P8281, respectively).
(§2) Potassium Phosphate Buffer 0.1 M (PPB) was made as follows: 2.72 gram KH2PO4 and 13.86 gram K2HPO4 were dissolved in 500 ml milli-Q H2O, the pH was adjusted to pH 7.4 and the volume was brought to 1 litre with milli-Q H2O; the buffer was filter sterilised and stored at room temperature. Resazurin stock solution (PPB-A) was prepared fresh by dissolving 45 mg resazurin in 15 ml PBS. 30 mM potassium ferricyanide (PPB-B) was prepared by dissolving 0.987 gram potassium ferricyanide in 100 ml PPB. 30 mM potassium ferrocyanide (PPB-C) was prepared by dissolving 1.266 gram potassium ferrocyanide in 100 ml PPB.
(§3) Mixture of PPB-A, PPB-B and PPB-C was prepared by mixing equal volumes of the respective solutions. Resazurin work solution (herein termed “Alamar Blue” solution) was prepared by diluting said mixture 20×(vol/vol) in PPB and filter sterilising; the Alamar Blue solution could be kept at 4° C. for a maximum of 2 weeks.
(§4) For experiments in 384 wells plates the cells were seeded at a density of 5×10^3 cells/ml in Falcon 384-well culture plates (Life Technologies, Merelbeke, Belgium), black with clear bottom, in 45 μl culture medium. Cells were allowed to adhere to plastic for 24 hr. The tested compound was pre-diluted (1/50 in culture medium) and 5 μl pre-diluted compound was added to the wells. Following 4-day incubation, 10 μl of the Alamar Blue solution was added to each well and the cells were further incubated for 5 hrs (A2780) or 6 hrs (U87MG) at 37° C. The fluorescence intensity was measured for each well with a Fluorescence plate reader (Fluorskan, Labsystems, 540 nm excitation and 590 nm emission)
(§5) The antiproliferative activity was calculated as percentage of remaining viable cells in treated versus control (untreated cells) conditions. Within an experiment, the result for each experimental condition is the mean of 3 replicate wells. When appropriate, the experiments were repeated to establish full concentration-response curves. When appropriate, IC50-values (concentration of the drug, needed to reduce cell growth to 50% of the control) were computed using probit analysis for graded data (Finney, D. J., Probit Analyses, 2nd Ed. Chapter 10, Graded Responses, Cambridge University Press, Cambridge 1962). Herein the effects of test compounds are expressed as pIC50 (the negative log value of the IC50-value) (see Table 4).

U87MG glioma cells = assay: Alamar Blue cell proliferation assay, U87MG; details: 4-day incubation; for IC50: Homo sapiens, U-87 MG, 96 h, read-out: U87MG cell proliferation inhibition pIC50 (converted)
Protocol: The human U87MG glioma cells were cultured in DMEM medium supplemented with 2 mM L-Glutamine, 1 mM Sodium Pyruvate, 1.5 g/L Sodium Bicarbonate, 50 μg/ml gentamicin and 10% heat inactivated fetal calf serum. (U87MG cells are human glioblastoma cells with wild type p53. In this cell line MDM2 tightly controls p53 expression).
as §1, §2, §3, §4, §5

p53 in A2780 cells = assay: p53 ELISA (preservation of p53 in A2780 cells); details: lowest dose giving at least 140% of the p53 value in the control, 16 hours treatment; for minimal effective concentration: Homo sapiens, read-out: p53-elisa LAD
Protocol: The capacity of the compounds to preserve p53 in A2780 cells was measured with the p53 enzyme linked immunosorbent assay (ELISA). The p53 assay is a “sandwich” enzyme immunoassay employing two polyclonal antibodies. A polyclonal antibody, specific for the p53 protein, has been immobilized onto the surface of the plastic wells. Any p53 present in the sample to be assayed will bind to the capture antibody. The biotinylated detector polyclonal antibody also recognizes p53 protein, and will bind to any p53, which has been retained by the capture antibody. The detector antibody, in turn, is bound by horseradish peroxidase-conjugated streptavidin. The horseradish peroxidase catalyses the conversion of the chromogenic substrate o-phenylene diamine, the intensity of which is proportional to the amount of p53 protein bound to the plate. The coloured reaction product is quantified using a spectrophotometer. Quantitation is achieved by the construction of a standard curve using known concentrations of purified recombinant HIS tagged p53 protein (see example C.1).
A2780 cells (ATCC) were cultivated in RPMI 1640 supplemented with 10% fetal calf serum (FCS), 2 mM L-glutamine and gentamycin at 37° C. in a humidified incubator with 5% CO2.
A2780 cells were seeded at 20.000 cells per well in a 96 well plate, cultured for 24 hours and treated with compound for 16 hours at 37° C. in a humidified incubator. After incubation, the cells were washed once with phosphate-buffered saline and 30 μl, per well, low salt RIPA buffer (20 mM tris, pH7.0, 0.5 mM EDTA, 1% Nonidet P40, 0.5% DOC, 0.05% SDS, 1 mM PMSF, 1 μg/ml aprotinin and 0.5 μ/ml leupeptin) was added. Plates were placed on ice for 30 minutes to complete the lysis. p53 protein was detected in de lysates by using the sandwich ELISA, described below.
High binding polystyrene EIA/RIA 96 well plates (Costar 9018) were coated with the capture antibody pAb1801 (Abcam ab28-100) at a concentration of 1 μg/ml in coating buffer (0.1 M NaHCO3 pH8.2), 50 μl per well. The antibody was allowed to adhere overnight at 4° C. Coated plates were washed once with phosphate-buffered saline (PBS)/0.05% Tween 20 and 300 μl of blocking buffer (PBS, 1% bovine serum albumins (BSA)) was added, for an incubation period of 2 hours at room temperature. Dilutions of purified recombinant HIS tagged p53 protein, ranging from 3-200 ng/ml, were made in blocking buffer and used as standards.
Plates were washed twice with PBS/0.05% Tween 20 and blocking buffer or standards were added at 80 μl/well. To the standards, 20 μl of lysis buffer was added. The samples were added to the other wells at 20 μl lysate/well. After an overnight incubation at 4° C., plates were washed twice with PBS/0.05% Tween 20. Aliquots of 100 μl secondary polyclonal antibody p53(FL-393) (Tebubio, sc-6243) at a concentration of 1 μg/ml in blocking buffer were added to each well and allowed to adhere for 2 hours at room temperature. Plates were washed three times with PBS/0.05% Tween 20. Detection antibody anti-rabbit HRP (sc-2004, Tebubio) at 0.04 μg/ml in PBS/1% BSA was added and incubated for 1 hour at room temperature. Plates were washed three times with PBS/0.05% Tween 20 and 100 μl of substrate buffer was added (substrate buffer was prepared shortly before use by adding 1 tablet of 10 mg o-phenylene diamine (OPD) from Sigma and 125 μl 3% H2O2 to 25 ml OPD buffer: 35 mM citric acid, 66 mM Na2HPO4, pH5.6). After 5 to 10 minutes, colour reaction was stopped by adding 50 μl stop buffer (1 M H2SO4) per well. The absorbance at dual wavelengths of 490/655 nm was measured using a Biorad micro plate reader and the results were then analyzed.
For each experiment, controls (containing no drug) and a blank incubation (containing no cells or drugs) were run in parallel. The blank value was subtracted from all control and sample values. For each sample, the value of p53 (in absorbance units) was expressed as the percentage of the value for p53 present in the control. […]

Compound | A2780 cell proliferation inhibition pIC50 [1] | U87MG cell proliferation inhibition pIC50 (U87MG glioma cells) | p53-elisa LAD (p53 in A2780 cells) [µM] | IC50 [1] [µM] | IC50 (U87MG glioma cells) [µM] | minimal effective concentration (p53 in A2780 cells) [µM]
COc1ccc2c(CCNc3c(F)cc(Nc4ccncc4)cc3F)c[nH]c2c1 [Compound 13] | <5 | 5.18 | >10.0 | – | – | –
OCc1cc(Nc2cc(F)c(NCCc3c[nH]c4ccccc34)c(F)c2)ccn1 [Compound 14] | – | – | – | > 10 | > 10 | > 10
COc1ccc2c(CCNc3c(F)cc(Nc4ccnc(CO)c4)cc3F)c[nH]c2c1 [Compound 16] | <5 | <5 | >10.0 | – | – | –
COc1ccc2c(CCNc3c(F)cc(Nc4ccnc5c4CCC5O)cc3F)c[nH]c2c1 (centres unmarked) [Compound 19] | <5 | 5.15 | >10.0 | – | – | –
Clc1cc(Nc2ccncc2)cc(Cl)c1NCCc1c[nH]c2ccccc12 [Compound 20] | <5 | <5 | >10.0 | – | – | –
Cc1cccc2c(CCNc3c(Cl)cc(Nc4ccncc4)cc3Cl)c[nH]c12 [Compound 21] | <5 | <5 | >10.0 | – | – | –
COc1ccc2c(CCNc3c(Cl)cc(Nc4ccncc4)cc3Cl)c[nH]c2c1 [Compound 22] | <5 | 5.29 | >10.0 | – | – | –
COc1cccc2c(CCNc3c(Cl)cc(Nc4ccncc4)cc3Cl)c[nH]c12 [Compound 23] | <5 | <5 | >10.0 | – | – | –
COc1ccc2c(CCNc3c(Cl)cc(Nc4ccnc(CO)c4)cc3Cl)c[nH]c2c1 [Compound 27] | <5 | <5 | >10.0 | – | – | –
COc1cccc2c(CCNc3c(Cl)cc(Nc4ccnc(CO)c4)cc3Cl)c[nH]c12 [Compound 28] | <5 | <5 | >10.0 | – | – | –
Cc1cccc2c(CCNc3c(Cl)cc(Nc4ccnc5ccccc45)cc3Cl)c[nH]c12 [Compound 30] | 5.08 | 5.06 | 1.0 | – | – | –
COc1cccc2c(CCNc3c(Cl)cc(Nc4ccnc5ccccc45)cc3Cl)c[nH]c12 [Compound 32] | <5 | 5.48 | >10.0 | – | – | –
OC1CCc2c(Nc3cc(Cl)c(NCCc4c[nH]c5ccccc45)c(Cl)c3)ccnc21 (centres unmarked) [Compound 33] | <5 | <5 | 3.0 | – | – | –
Cc1[nH]c2ccccc2c1CCNc1c(Cl)cc(Nc2ccnc3c2CCC3O)cc1Cl (centres unmarked) [Compound 34] | 5.67 | 5.14 | 1.0 | – | – | –
Cc1cccc2c(CCNc3c(Cl)cc(Nc4ccnc5c4CCC5O)cc3Cl)c[nH]c12 (centres unmarked) [Compound 35] | <5 | <5 | 1.0 | – | – | –
COc1ccc2c(CCNc3c(Cl)cc(Nc4ccnc5c4CCC5O)cc3Cl)c[nH]c2c1 (centres unmarked) [Compound 36] | <5 | 5.08 | 10.0 | – | – | –
COc1cccc2c(CCNc3c(Cl)cc(Nc4ccnc5c4CCC5O)cc3Cl)c[nH]c12 (centres unmarked) [Compound 37] | <5 | <5 | 3.0 | – | – | –
OCc1cc(Nc2cc(Br)c(NCCc3c[nH]c4ccccc34)cc2CO)ccn1 [Compound 52] | <5 | 5.33 | >10.0 | – | – | –
OCc1cc(NCCc2c[nH]c3ccccc23)c(Br)cc1Nc1ccnc2c1CCC2O (centres unmarked) [Compound 54] | <5 | – | >10.0 | – | – | –
N#Cc1c(NCCc2c[nH]c3ccccc23)ccc(Nc2ccnc3c2CCC3O)c1N1CCOCC1 (centres unmarked) [Compound 57] | <5 | <5 | >10.0 | – | – | –
Cc1cccc2c(CCNc3ccc(Nc4ccnc5c4CCC5O)c(N4CCOCC4)c3C#N)c[nH]c12 (centres unmarked) [Compound 58] | <5 | <5 | >10.0 | – | – | –
COc1c(Nc2ccnc3c2CCC3O)ccc(NCCc2c[nH]c3c(CO)cccc23)c1F (centres unmarked) [Compound 62] | – | – | – | 0.912 | 1.29 | 3
COc1c(Nc2ccnc3c2CCC3O)ccc(NCCc2c[nH]c3c(C(C)(C)O)cccc23)c1F (centres unmarked) [Compound 63] | – | – | – | 0.0741 | 0.468 | 1
